In the NIST ThermoML archive (doi:10.1021/acs.jced.5b00105):

Assay: refractive index (Na D-line) (dimensionless); xn = mol fraction of the nth substance listed
Conditions: 100 kPa, Liquid

CCCCC1CCCCC1 [butylcyclohexane] + CC(C)CC(C)(C)C
refractive index
Conditions	293.15 K	298.15 K	303.15 K	308.15 K	313.15 K	318.15 K	323.15 K
x1 = 0.0999	1.3972	–	1.3928	–	1.3884	–	–
x1 = 0.1008	–	1.3944	–	1.3898	–	1.3849	1.3824
x1 = 0.2	–	1.4001	–	1.3953	–	1.3907	1.3885
x1 = 0.2002	1.4026	–	1.3981	–	1.3935	–	–
x1 = 0.3001	1.4079	1.4055	1.4034	1.4008	1.3988	1.3959	1.3943
x1 = 0.3996	1.413	–	1.4087	–	1.4042	–	–
x1 = 0.3999	–	1.4105	–	1.4057	–	1.4015	1.3993
x1 = 0.5004	–	1.4155	–	1.4112	–	1.4069	1.4045
x1 = 0.5005	1.4181	–	1.4139	–	1.4094	–	–
x1 = 0.5999	–	1.4204	–	1.4158	–	1.4118	1.4093
x1 = 0.6003	1.423	–	1.4186	–	1.4141	–	–
x1 = 0.6994	1.4276	–	1.423	–	1.4185	–	–
x1 = 0.6995	–	1.4249	–	1.4207	–	1.4161	1.4145
x1 = 0.7998	–	1.4295	–	1.4249	–	1.4208	1.4184
x1 = 0.8	1.4321	–	1.4274	–	1.4229	–	–
x1 = 0.9	–	1.4335	–	1.4292	–	1.4248	1.4229
x1 = 0.9001	1.4362	–	1.4314	–	1.4271	–	–
x1 = 1	1.4403	1.4377	1.4355	1.4333	1.4314	1.429	1.4268

CC1CCCCC1 [methylcyclohexane] + CC(C)CC(C)(C)C
refractive index
Conditions	293.15 K	298.15 K	303.15 K	308.15 K	313.15 K	318.15 K	323.15 K
x1 = 0.0999	–	1.3912	–	1.3876	–	1.3811	1.3789
x1 = 0.1012	1.395	–	1.3903	–	1.3861	–	–
x1 = 0.1999	–	1.3938	–	1.3902	–	1.3844	1.3819
x1 = 0.2003	1.3975	–	1.3929	–	1.3887	–	–
x1 = 0.2997	–	1.3966	–	1.3942	–	1.3871	1.3846
x1 = 0.3001	1.4	–	1.3958	–	1.3916	–	–
x1 = 0.4	–	1.3997	–	1.3962	–	1.3898	1.3869
x1 = 0.4019	1.403	–	1.3988	–	1.3947	–	–
x1 = 0.5	–	1.4028	–	1.3998	–	1.393	1.3905
x1 = 0.5008	1.406	–	1.4018	–	1.3978	–	–
x1 = 0.6	1.409	1.4059	1.4049	1.4029	1.401	1.3962	1.3938
x1 = 0.6998	1.4125	–	1.4082	–	1.4043	–	–
x1 = 0.7001	–	1.4092	–	1.4064	–	1.3993	1.397
x1 = 0.7999	–	1.4127	–	1.4097	–	1.403	1.4
x1 = 0.8	1.4158	–	1.4117	–	1.4077	–	–
x1 = 0.9	1.4195	1.4161	1.4153	1.4132	1.4114	1.4066	1.4039
x1 = 1	1.4232	1.4199	1.419	1.4168	1.415	1.4102	1.4078

CCC1CCCCC1 [ethylcyclohexane] + CC(C)CC(C)(C)C
refractive index
Conditions	293.15 K	298.15 K	303.15 K	308.15 K	313.15 K	318.15 K	323.15 K
x1 = 0.1	1.3959	1.3926	1.3918	1.3889	1.3877	1.3826	1.3805
x1 = 0.1999	–	1.3965	–	1.3932	–	1.3867	1.3849
x1 = 0.2	1.4005	–	1.3964	–	1.3924	–	–
x1 = 0.3	–	1.4004	–	1.3975	–	1.3912	1.3891
x1 = 0.3003	1.4043	–	1.4003	–	1.396	–	–
x1 = 0.3997	1.4084	–	1.4041	–	1.4003	–	–
x1 = 0.4	–	1.4046	–	1.4015	–	1.3954	1.3931
x1 = 0.5	–	1.4086	–	1.4059	–	1.3996	1.3975
x1 = 0.5002	1.4123	–	1.4084	–	1.4047	–	–
x1 = 0.6001	–	1.4129	–	1.4098	–	1.4037	1.4015
x1 = 0.6005	1.4167	–	1.4125	–	1.4087	–	–
x1 = 0.7002	1.4207	–	1.4169	–	1.4132	–	–
x1 = 0.7004	–	1.4172	–	1.4146	–	1.4081	1.4059
x1 = 0.8001	–	1.4214	–	1.4186	–	1.4118	1.4097
x1 = 0.8003	1.4254	–	1.4211	–	1.4175	–	–
x1 = 0.8994	–	1.4256	–	1.4228	–	1.4161	1.4144
x1 = 0.8997	1.4295	–	1.4253	–	1.4216	–	–
x1 = 1	1.4337	1.4301	1.4295	1.4278	1.4259	1.4204	1.4187
